Data: US10966995B2, “Use of secoisolariciresinol diglucosides (SDGS) and related compounds for protection against radiation and chemical damage” (THE TRUSTEES OF THE UNIVERSITY OF PENNSYLVANIA, priority 2014, dated 2021)

Key:
[1] = system: Murine primary lung cells (epithelial cells); assay: qPCR of Bax and Bcl-2 gene expression after irradiation; assay type: cell-based, mouse; conditions: for Bcl-2 mRNA levels, increase: SDG pre-treated cells
Method: qPCR was performed using TaqMan® Probe-Based Gene Expression Assays supplied by Applied Biosystems, Life Technologies (Carlsbad, Calif.). To evaluate the effect of SDG treatment on the mRNA expression of apoptotic genes, individual TaqMan® gene expression assays were performed for Bax (Mm00432051_m1) and Bcl-2 (Mm00477631_m1).
Briefly, cells were pre-treated with SDG (50 μM, 6 hrs) and irradiated (2 Gy). Total RNA was isolated from using RNeasy Plus Mini Kit (Qiagen, Valencia, Calif.) and quantified using a NanoDrop 2000 (ThermoFisher Scientific, Waltham, Mass.). Reverse transcription of RNA to cDNA was then performed on a Veriti® Thermal Cycler using the High Capacity RNA to cDNA kit supplied by Applied Biosystems, Life Technologies (Carlsbad, Calif.). qPCR was performed using 25 ng of cDNA per reaction well on a StepOnePlus™ Real-Time PCR System (Applied Biosystems, Life Technologies, Carlsbad, Calif.). Gene expression data was normalized to 18S ribosomal RNA and calibrated to untreated control samples according to the ΔΔCT method.

[2] = Scavenging of γ-radiation-induced hypochlorite (APF/HPF fluorescence in PBS)
Method: The fluorescence of ROS probes APF and HPF in PBS was measured at excitation/emission at 490 nm/515 nm in presence of hypochlorite or after γ-radiation exposure. Data is expressed as relative fluorescence units (RFU).

[3] = γ-Radiation-induced chlorination of 2-AP
Excerpt: 2-AP in PBS was exposed to hypochlorite and fluorescence spectra recorded between 360-390 nm with the emission maximum at 374 nm. The % change in 2-AP calculated.
To determine whether radiation induces nucleobase chlorination, we used the same system as above, namely 2-AP fluorescence (FIG. 19A).

[4] = system: Nrf2-regulated antioxidant enzymes (AOE); assay: SDG dosing study: antioxidant enzyme expression in lung after oral gavage; assay type: in vivo, mouse
Method: SDG doses of 5, 25, 50 and 100 mg/Kg body weight were administered orally to mice (n=5 per dose) and 4 hours later tissues were collected for analysis. Plasma concentrations of SDG and its bioactive metabolites ED, EL and SECO were analyzed by liquid chromatography and mass spectrometry and are expressed in ng/mL (FIG. 39) while gene expression levels of Nrf2-regulated antioxidant enzymes (AOE), an intracellular target of SDG and its metabolites, were determined in lung tissues from the same animals using qRT-PCR (FIG. 40). Gene expression levels of HO1, NQO1 and GST, increased 2-3 fold with as little as 5 mg SDG/Kg and reached an average of 6-fold increase over baseline with 100 mg/Kg SDG.

[5] = system: mouse peritoneal macrophages; assay: Asbestos-exposed peritoneal macrophages: oxidative/nitrosative stress and cytokine secretion; assay type: cell-based; conditions: 20 μg/cm^2 asbestos; 25 and 50 μM SDG 3-8 hours post exposure; p<0.05
Method: To test the hypothesis that the flaxseed lignan SDG will decrease asbestos-induced inflammation, and oxidative and nitrosative stress, mouse peritoneal macrophages were exposed to varying concentrations of crocidolite asbestos fibers ([…]). At variable times post asbestos exposure (3, 4, 6, and 8 hours), cells were incubated with SDG (50 μM) and supernatants collected 24 hours later to detect inflammatory cytokine secretion and nitrosative/oxidative stress (FIG. 49).
(§1) SDG given to macrophages several hours post exposure to asbestos decreases oxidative stress (FIGS. 52A-52B). Female C57/Bl6 mice were injected with 2 mL of thioglycollate and peritoneal macrophages harvested after 3 days. 2 million cells per well were plated in a 6 well plate and exposed to 20 μg/cm^2 asbestos. Cells were treated with 25 or 50 μM SDG (synthetic SDG) 3, 4, 6, or 8 hours post-asbestos exposure. Cells were harvested 24 hours post-asbestos exposure. Analysis performed on frozen supernatant samples.
as §1, with “Given” for “given”, “Macrophages Several Hours Post Exposure to Asbestos Decreases Nitrosative Stress (FIGS. 53A-53B). To evaluate of SDG in blunting nitrosative stress in cells” for “macrophages several hours”, “post” for “post exposure to”, “exposure, female” for “decreases oxidative stress (FIGS. 52A-52B). Female”
(§2) SDG Given to Macrophages Several Hours Post Exposure to Asbestos Decreases inflammatory cytokine secretion (IL-1β) (FIGS. 54A-54B). To evaluate SDG in blunting inflammatory cytokine secretion (IL-1β) in cells post asbestos exposure, female C57/Bl6 mice were injected with 2 mL of thioglycollate and peritoneal macrophages harvested after 3 days 2 million cells per well were plated in a 6 well plate and exposed to 20 μg/cm^2 asbestos. Cells were treated with 25 or 50 μM SDG (synthetic SDG) 3, 4, 6, or 8 hours post-asbestos exposure. Cells were harvested 24 hours post-asbestos exposure. Analysis performed on fresh supernatant samples.
as §2, with “(TNF-α)” for “(IL-1β)”, “55A-55B).” for “54A-54B).”, “days.” for “days”, “Cells were harvested 24 hours post-asbestos exposure. Analysis performed on fresh supernatant samples.” left out

In the case of COc1cc(C[C@@H](CO[C@@H]2O[C@H](CO)[C@@H](O)[C@H](O)[C@H]2O)[C@H](CO[C@@H]2O[C@H](CO)[C@@H](O)[C@H](O)[C@H]2O)Cc2ccc(O)c(OC)c2)ccc1O [SDG, secoisolariciresinol diglucoside], the “IR-induced increase in pro-apoptotic Bax mRNA levels” value ([1]; SDG 50 μM pre-treatment, 2 Gy, 24 and 48 hours post-IR) is reported as “significantly (p<0.05) inhibited”, the “Bcl-2 mRNA levels, increase” value ([1]; 24 hours post-IR) is reported as 6.6 fold and the “Bcl-2 mRNA levels, increase” value ([1]; 48 hours post-IR) is reported as 3.5 fold. For the same compound, the “Ratio APF/HPF” value [2] was “decreased”, the “ClO^− generation from radiation exposure” value ([2]; 25 and 50 Gy) was “blunted” and the “γ-radiation-induced APF and HPF fluorescence” value ([2]; 50 Gy) was “dose-dependently decreased”. For the same compound, the “Initial slope for decrease of APF fluorescence” value ([2]; 50 Gy, SDG dose response) was 1,816.30, the “Initial slope for decrease of HPF fluorescence” value ([2]; 50 Gy, SDG dose response) was 695.75 and the “γ-radiation-induced decrease in 2-AP fluorescence intensity” value [3] was “prevented”. For the same compound, the “Gene expression levels of HO1, NQO1 and GST in lung, increase” value ([4]; 5 mg SDG/Kg oral, 4 hours) was 2-3 fold, the “Gene expression levels of HO1, NQO1 and GST in lung, average increase over baseline” value ([4]; 100 mg/Kg SDG oral, 4 hours) was 6 fold and the “Protein levels in lung tissues” value ([4]; oral SDG dosing study) was “lower but yet significant increase”. The IL-1β levels [5] was “significantly decreased”, the “Malondialdehyde (MDA) levels, lipid peroxidation” value [5] was “significantly decreased” and the “Nitrite, marker for nitrosative stress” value [5] was “significantly decreased”. For the same compound, the TNF-α levels [5] was “significantly decreased”.
